# Assay results reported in patent US4450269A, “Mono-5-substituted-3-chloro-4H-1,2,6-thiadiazin-4-one antifungal agents” (FMC Corporation, priority 1980, dated 1984).
# Like-named read-outs stand apart in the source and are kept apart here.
# Tests used:
# Pyricularia oryzae [1] = experiment: microbe, parasite or virus in culture; assay type: cell-based; details: PO, 72 hours
# Helminthosporium oryzae = experiment: Mycelial growth test; details: HO, 72 hours
# Pyricularia oryzae [2] = experiment: whole plant or invertebrate; assay type: in vivo; details: 150 ppm, 24 hours after inoculation
# Cladosporium cucumerinum [3] = experiment: Spore germination test; assay type: cell-based; details: CC, 48 hours
# Method: CC = Cladosporium cucumerinum
# (§1) The test chemical was dissolved or suspended in acetone in an amount such that 0.8 ml of the resulting suspension or solution, mixed with 40 ml water agar produced a water agar solution containing 40, 10, 2.5 and 1 ppm of test chemical. The resulting agar solution, at 50° C., was then divided equally between two sterile petri dishes, each having four separated quadrants, and allowed to solidify. […] quadrants of each dish were flooded with 0.1 ml of a spore suspension in sterile water. Spores of two pathogens, Erysiphe polygoni and Uromyes phaseoli, from infected plant leaves, were brushed on the remaining two quadrants. The tests were then incubated 48 hours, at 24° C.
# (§2) Readings were then taken and the percentage of germinated spores calculated. From this percentage, a spore germination rating was assigned as follows: […]
# Phytophthora infestans [4] = experiment: whole plant or invertebrate; assay type: in vivo; details: 150 ppm, protective
# Cladosporium cucumerinum [5] = experiment: Mycelial growth test; assay type: cell-based; details: CC, 72 hours
# Excerpt: |CC = Cladosporium cucumerinum
# Erysiphe polygoni [6] = details: in vivo
# Uromyces phaseoli [7] = details: in vivo
# Pyricularia oryzae [8] = assay type: cell-based; details: PO, 48 hours
# Phytophthora infestans [9] = assay type: cell-based; details: PI, 48 hours
# Pythium ultimum = experiment: Mycelial growth test; assay type: cell-based; details: PU, 72 hours
# Fusarium solani = experiment: Mycelial growth test; assay type: cell-based; details: PS, 72 hours
# Alternaria solani [10] = experiment: Mycelial growth test; assay type: cell-based; details: AS, 72 hours
# Uromyces phaseoli [11] = details: in vivo; remark: listed apart in the source
# [12] = tested on: Pythium ultimum and Rhizoctonia solani; experiment: Soil/seed treatment, cucumber damping-off complex; assay type: in vivo; details: 150 ppm suspension, 3.75 to 3.8 mg per pot
# Method: Containers having a volume of about 0.25 l. were 2/3 filled with topsoil and 25 cucumber c.v. [Straight Eight` seeds deposited on the soil surface of each pot. A suspension containing 150 ppm of the test chemical was poured over the seeds and into the soil in sufficient quantity to provide 3.75 to 3.8 mg active ingredient per pot.
# Fungi used in this test were Pythium ultimum and Rhizoctonia solani. These fungi were each grown on potato dextrose agar for three to six days. The agar plus mycelium was then minced in a blender with water and 10 ml of the resulting slurry of minced mycelium poured over the seeds.
# Following inoculation approximately 15 mm of topsoil was spread over the seeds, the container capped and incubated at 4° C. in darkness for three days, then transferred to a greenhouse (27° C.) for 10-14 days, at which time stand counts were made. Captan was used as a standard for comparison. Based on stand counts on Efficacy Index was calculated for each test chemical as follows: [formula]
# Erysiphe polygoni [13] = experiment: Spore germination test; assay type: cell-based; details: EP, 48 hours
# Method: as §1, §2
# Uromyces phaseoli [14] = experiment: Spore germination test; assay type: cell-based; details: UP, 48 hours
# Method: as §1, §2
# Alternaria solani [15] = experiment: Spore germination test; assay type: cell-based; details: AS, 48 hours
# Method: as §1, §2
# Botrytis cinerea = experiment: Spore germination test; assay type: cell-based; details: BC, 48 hours
# Method: as §1, §2
# Sclerotinia fructicola = experiment: Mycelial growth test; assay type: cell-based; details: SF, 72 hours
# Excerpt: | SF = Sclerotinia fructicola
# Rhizoctonia solani = experiment: Mycelial growth test; assay type: cell-based; details: RS, 72 hours
# Excerpt: | RS = Rhizoctonia solani
substance,measurement,setting,value
"3-chloro-5-[methylaminocarbonyloxy)phenoxyl]-4H-1,2,6-thiadiazin-4-one [Compound 36]",Percent Fungus Growth Inhibition,Pyricularia oryzae [1]; 5 ppm,31%
same,Percent Fungus Growth Inhibition,Pyricularia oryzae [1]; 10 ppm,69%
same,Percent Fungus Growth Inhibition,Pyricularia oryzae [1]; 20 ppm,100%
same,Percent Fungus Growth Inhibition,Pyricularia oryzae [1]; 40 ppm,100%
same,Percent Fungus Growth Inhibition,Helminthosporium oryzae; 5 ppm,78%
same,Percent Fungus Growth Inhibition,Helminthosporium oryzae; 10 ppm,78%
same,Percent Fungus Growth Inhibition,Helminthosporium oryzae; 20 ppm,89%
same,Percent Fungus Growth Inhibition,Helminthosporium oryzae; 40 ppm,100%
same,"Percent Disease Control, curative, rice blast",Pyricularia oryzae [2],95%
same,Spore Germination Rating,Cladosporium cucumerinum [3]; 1.0 ppm,4 (80-100)
same,Spore Germination Rating,Cladosporium cucumerinum [3]; 2.5 ppm,3 (60-80)
same,Spore Germination Rating,Cladosporium cucumerinum [3]; 40 ppm,0 (0-10)
same,"Percent Disease Control, foliar, tomato late blight",Phytophthora infestans [4],90%
same,Percent Fungus Growth Inhibition,Cladosporium cucumerinum [5]; 5 ppm,0%
same,Percent Fungus Growth Inhibition,Cladosporium cucumerinum [5]; 10 ppm,8%
same,Percent Fungus Growth Inhibition,Cladosporium cucumerinum [5]; 20 ppm,38%
same,Percent Fungus Growth Inhibition,Cladosporium cucumerinum [5]; 40 ppm,62%
same,"Percent Disease Control, curative, bean powdery mildew",Erysiphe polygoni [6],0%
same,"Percent Disease Control, curative, bean rust",Uromyces phaseoli [7],0%
same,Spore Germination Rating,Pyricularia oryzae [8]; 1.0 ppm,4 (80-100)
same,Spore Germination Rating,Pyricularia oryzae [8]; 2.5 ppm,2 (40-60)
same,Spore Germination Rating,Pyricularia oryzae [8]; 10 ppm,0 (0-10)
same,Spore Germination Rating,Pyricularia oryzae [8]; 40 ppm,0 (0-10)
same,Spore Germination Rating,Phytophthora infestans [9]; 1.0 ppm,4 (80-100)
same,Spore Germination Rating,Phytophthora infestans [9]; 2.5 ppm,4 (80-100)
same,Spore Germination Rating,Phytophthora infestans [9]; 10 ppm,4 (80-100)
same,Spore Germination Rating,Phytophthora infestans [9]; 40 ppm,0 (0-10)
same,Percent Fungus Growth Inhibition,Pythium ultimum; 5 ppm,0%
same,Percent Fungus Growth Inhibition,Pythium ultimum; 10 ppm,42%
same,Percent Fungus Growth Inhibition,Pythium ultimum; 20 ppm,100%
same,Percent Fungus Growth Inhibition,Pythium ultimum; 40 ppm,100%
same,Percent Fungus Growth Inhibition,Fusarium solani; 5 ppm,30%
same,Percent Fungus Growth Inhibition,Fusarium solani; 10 ppm,45%
same,Percent Fungus Growth Inhibition,Fusarium solani; 20 ppm,60%
same,Percent Fungus Growth Inhibition,Fusarium solani; 40 ppm,90%
same,Percent Fungus Growth Inhibition,Alternaria solani [10]; 5 ppm,71%
same,Percent Fungus Growth Inhibition,Alternaria solani [10]; 10 ppm,90%
same,Percent Fungus Growth Inhibition,Alternaria solani [10]; 20 ppm,100%
same,Percent Fungus Growth Inhibition,Alternaria solani [10]; 40 ppm,100%
same,"Percent Disease Control, foliar, bean rust",Uromyces phaseoli [11],100%
same,"Efficacy Index, seed/soil, cucumber damping-off complex",[12],13
same,Spore Germination Rating,Erysiphe polygoni [13]; 1.0 ppm,4 (80-100)
same,Spore Germination Rating,Erysiphe polygoni [13]; 2.5 ppm,3 (60-80)
same,Spore Germination Rating,Erysiphe polygoni [13]; 10 ppm,1 (10-40)
same,Spore Germination Rating,Erysiphe polygoni [13]; 40 ppm,1 (10-40)
same,Spore Germination Rating,Uromyces phaseoli [14]; 1.0 ppm,4 (80-100)
same,Spore Germination Rating,Uromyces phaseoli [14]; 2.5 ppm,2 (40-60)
same,Spore Germination Rating,Uromyces phaseoli [14]; 10 ppm,0 (0-10)
same,Spore Germination Rating,Uromyces phaseoli [14]; 40 ppm,0 (0-10)
same,Spore Germination Rating,Alternaria solani [15]; 1.0 ppm,4 (80-100)
same,Spore Germination Rating,Alternaria solani [15]; 2.5 ppm,4 (80-100)
same,Spore Germination Rating,Alternaria solani [15]; 10 ppm,2 (40-60)
same,Spore Germination Rating,Alternaria solani [15]; 40 ppm,0 (0-10)
same,Spore Germination Rating,Botrytis cinerea; 1.0 ppm,4 (80-100)
same,Spore Germination Rating,Botrytis cinerea; 2.5 ppm,4 (80-100)
same,Spore Germination Rating,Botrytis cinerea; 10 ppm,4 (80-100)
same,Spore Germination Rating,Botrytis cinerea; 40 ppm,2 (40-60)
same,Percent Fungus Growth Inhibition,Sclerotinia fructicola; 5 ppm,38%
same,Percent Fungus Growth Inhibition,Sclerotinia fructicola; 10 ppm,62%
same,Percent Fungus Growth Inhibition,Sclerotinia fructicola; 20 ppm,58%
same,Percent Fungus Growth Inhibition,Sclerotinia fructicola; 40 ppm,100%
same,Percent Fungus Growth Inhibition,Rhizoctonia solani; 5 ppm,0%
same,Percent Fungus Growth Inhibition,Rhizoctonia solani; 10 ppm,4%
same,Percent Fungus Growth Inhibition,Rhizoctonia solani; 20 ppm,42%
same,Percent Fungus Growth Inhibition,Rhizoctonia solani; 40 ppm,87%
